Broadly, the EC50 is the concentration at which the effect is half-maximal.

Like-named read-outs stand apart in the source and are kept apart here. Bounds are passed on as bounds.

In test [1] the test system is HCV replicons with genotype 2b patient proteases. Description: Transient replicon assay with proteases from HCV-infected patients. In kind it is cell-based. As to conditions: Hepatitis C virus, read-out: EC50 Range. The text has this:
(§1) Each of the NS3 gene sequences from genotypes 1, 2, and 4, with the exception of two genotype 2b sequences, was derived from serum or plasma from an HCV-infected patient by bulk PCR amplification, producing a population of sequences representing the viral quasispecies. Two genotype 2b sequences were synthesized based on the consensus sequences of the respective samples. One genotype 3a sequence was synthesized based on a consensus sequence from the sequences available in the Los Alamos HCV sequence database, and another genotype 3a sequence was a clonal sequence derived from a patient sample. The genotype 5a sequence (strain SA13) was synthesized based on the published sequence of the HCV isolate ([48]).
For the analysis of NS3 sequences from patients, we defined a polymorphism to be an amino acid difference in the sequence of a baseline sample relative to the sequence of the appropriate HCV subtype reference sequence: genotype 1a H77 (GenBank accession number NC_004102), genotype 1b Con1 (GenBank accession number AJ238799), genotype 2a JFH-1 (GenBank accession number AB047639), genotype 2b HC-J8 (GenBank accession number D10988), genotype 3a S52 (GenBank accession number GU814263), genotype 4a ED43 (GenBank accession number GU814265), genotype 4d QC382 (GenBank accession number FJ462437), and genotype 5a SA13 (GenBank accession number AF064490). […]
A general note: Replicon systems follow genome replication, usually without infectious particles.

Test [2] has as its system HCV replicons with genotype 2a patient proteases. The test is described as above. The note with it: Hepatitis C virus, subtype 2a, no polymorphism, 4 samples. In kind it is cell-based.
Description: as §1, with “[…]. Each” for “Each”
A genotype 2a JFH-1 replicon shuttle vector was used to generate transient replicons containing NS3 from clinical samples from genotype 2a- and genotype 2b-infected patients. The region encoding the first 227 amino acids of NS3 from samples from genotype 2a- and 2b-infected patients was used to replace the corresponding region in the genotype 2a JFH-1 replicon shuttle vector. The genotype 2a JFH-1 replicon shuttle vector was also used to generate a transient replicon containing a region encoding full-length NS3 through the first 39 amino acids of NS5B from genotype 5a (strain SA13). […]

The subject of test [3] is HCV genotype 1a replicon cells. Description: Drug-resistant colony selection in replicon cells. The format is cell-based, Hepatitis C virus. An excerpt:
(§2) . After approximately 3 weeks of treatment, the surviving replicon colonies in one plate for each selection condition were stained with crystal violet and counted, whereas approximately 20 to 30 colonies in a replicate plate or most of the colonies, if less than 20 colonies survived the selection, were picked and further expanded for genotyping. The expanded colonies were lysed in CellsDirect lysis buffer (Invitrogen, MA), and the NS3-coding region from each colony was amplified by reverse transcription-PCR and sequenced. For genotype 1a, 1b, 2a, and 5a colonies, the full-length NS3 sequence was determined, whereas for colonies of the chimeric replicon containing the N-terminal region of NS3 from genotype 2b, 3a, 4a, or 6a, the sequence encoding the NS3 N-terminal region was determined. We defined a substitution in a replicon to be an amino acid difference in a sequence from a posttreatment sample relative to the sequence of the corresponding untreated sample. For resistance selection studies, NS3 substitutions detected at the following amino acid positions associated with resistance to the HCV PI class in >2 colonies in each replicon selection are reported: 36, 43, 54, 55, 56, 80, 122, 155, 156, and 168. In addition, substitutions detected at other amino acid positions in the NS3 protease domain in >2 colonies in each replicon selection are also reported.
(§3) […]. The drug-resistant colonies were fixed and stained with crystal violet, and the number of colonies was determined.

The test system of test [4] is HCV genotype 1b replicon cells. Kind of test: Drug-resistant colony selection in replicon cells. The format is cell-based, Hepatitis C virus.
Description: as §2, §3

The test system of the next test is HIV-1 IIIB strain. Description: HIV-1 antiviral cytoprotection assay, CEM-SS cells. In kind it is cell-based, human immunodeficiency virus type 1. The note with it: Human immunodeficiency virus 1, IIIB, read-out: Mean EC50 ± SD.
Test [5] relates to HCV genotype 1 to 6 replicons containing NS3 substitutions. Kind of test: Transient replicon assay with engineered substitutions, summary over genotypes. The format is cell-based, Hepatitis C virus. On the procedure:
Mutagenesis was performed using a Change-IT multiple-mutation site-directed mutagenesis kit (USB, Cleveland, OH) or by cloning a synthesized DNA fragment encoding the amino acid substitution(s). The genotype 1a and 1b replicon shuttle vectors used for the introduction of the substitutions of interest in the NS3, NS5A, or NS5B gene for transient-transfection assays have been described previously ([28], [33]). The replicon shuttle vectors used for the introduction of substitutions in NS3 genes from other genotypes were similar to the stable replicon cell line constructs described above, except for the absence of the neo gene. After mutagenesis, the plasmids were linearized and RNA was transcribed and then used to transfect Huh-7 cells. Inhibition of HCV replication by the HCV inhibitors was measured by luciferase assay, as described above. Replication efficiency was calculated as a percentage of wild-type replication, as described previously ([28]).

As to `CC(C)(C)[C@@H]1NC(=O)O[C@@H]2CCC[C@H]2OC/C=C/C(F)(F)c2nc3ccccc3nc2O[C@@H]2C[C@@H](C(=O)N[C@]3(C(=O)NS(=O)(=O)C4(C)CC4)C[C@H]3C(F)F)N(C2)C1=O` [Glecaprevir, (3aR,7S,10S,12R,21E,24aR)-7-tert-butyl-N-[(1R,2R)-2-(difluoromethyl)-1-{[(1-methylcyclopropyl)sulfonyl]carbamoyl}cyclopropyl]-20,20-difluoro-5,8-dioxo-2,3,3a,5,6,7,8,11,12,20,23,24a-dodecahydro-1H,10H-9,12-methanocyclopenta[18,19][1,10,17,3,6]trioxadiazacyclononadecino[11,12-b]quinoxaline-10-carboxamide], the EC50 is 1.4 to 3.2 nM in test [1], 1.6 nM in test [2] (read-out: EC50 Median), 0.66 to 1.9 nM in test [2] (read-out: EC50 Range) and over 22000 nM with HIV-1 IIIB strain. Further, the Colony survival in test [3] (10× EC50, about 3 weeks) was determined as 0.043%; in test [3] (100× EC50), 0.0029%; in test [4] (10× EC50, about 3 weeks), 0.047%; in test [4] (100× EC50), 0.03%.

On to `Cc1cnc(C(=O)N[C@H]2CCCCC/C=C\[C@@H]3C[C@@]3(C(=O)NS(=O)(=O)C3CC3)NC(=O)[C@@H]3C[C@@H](Oc4nc5ccccc5c5ccccc45)CN3C2=O)cn1` [Paritaprevir], for which the “Fold decrease in susceptibility” value in test [5] (R155 substitutions in genotypes 1, 3 and 4) is listed as 5.2- to 59 fold. Moreover, in test [5] (replicons with A156 substitutions in genotypes 1 to 4), the “Fold reduction in antiviral activity, range” value is 1.7- to 155 fold.

The values above are taken from article PMC5740381 (Antimicrobial Agents and Chemotherapy, 2017).
